This is an account of results in ChEMBL document CHEMBL2424536, “Withanolides isolated from Withania somnifera with -glucosidase inhibition” (Med Chem Res, 2013).

As usually defined, the IC50 is the concentration needed to halve the response being measured.

Assay [1] has as its system Saccharomyces sp. The experiment in a line: Inhibition of Saccharomyces sp. alpha-glucosidase using p-nitrophenyl a-D-glucopyranoside as substrate at 100 ug/ml by spectrophotometric analysis.
Assay [2] is described as follows: (§1) Inhibition of Saccharomyces sp. alpha-glucosidase using p-nitrophenyl a-D-glucopyranoside as substrate by spectrophotometric analysis.
In assay [3] the test system is Saccharomyces sp. The description is as §1.

With `CC1=C(C)C(=O)O[C@@H]([C@](C)(O)[C@H]2CC[C@@H]3[C@]2(C)CC[C@H]2[C@@]3(O)[C@H]3O[C@H]3[C@@]3(O)CC=CC(=O)[C@]23C)C1`, in the assay with Saccharomyces sp. [1], the Imax amounted to 94.3%. In assay [2], this compound displayed a concentration for half-maximal inhibition (IC50) of 40.65 µg/mL. Besides, the inhibition result in the assay with Saccharomyces sp. [3] is “Dose-dependent effect”.
The compound `CC1=C(C)C(=O)O[C@@H]([C@](C)(O)[C@H]2CC[C@H]3[C@@H]4CC=C5CC=CC(=O)[C@]5(C)[C@H]4CC[C@]23C)C1` came in with an Imax with Saccharomyces sp. [1] of 69.7%. In addition, the 50% inhibitory concentration (IC50) in assay [2] came out at 85.8 µg/mL. Moreover, in the assay with Saccharomyces sp. [3], the inhibition entry was “Dose-dependent effect”.
In the case of `OC[C@H]1NC[C@H](O)[C@@H](O)[C@@H]1O` [DUVOGLUSTAT], the IC50 in assay [2] (read-out: IC50) amounted to 422 µM.
As for `CC1=C(C)C(=O)O[C@@H]([C@](C)(O)C2=CC[C@@]3(O)[C@@H]4CC=C5CC=CC(=O)[C@]5(C)[C@H]4CC[C@]23C)C1`, the Imax in the assay with Saccharomyces sp. [1] worked out at 96.1%. This compound also returned an IC50 in assay [2] of 38.2 µg/mL. Besides, the inhibition result in the assay on Saccharomyces sp. [3] was “Dose-dependent effect”.
